Consider 70 compounds from PMC6792352, “Limited Chemical Structural Diversity Found to Modulate Thyroid Hormone Receptor in the Tox21 Chemical Library” (Environmental Health Perspectives, 2019).

This data set is described as follows: in vitro. To be noted: rat, gh3-tre-luc cells.

Counter-ions that a name gives are not always drawn. Where only a bound is given, the exact number is not on record here.

As to `CCCCCCCCCCCCCCCC(=O)OC(C)C` [Hexadecanoic acid, 1-methylethyl ester], under “AC50 (uM) modified / 1000”, the CC50 (as a rule, the concentration that lowers cell viability or growth by half) at 24 h was over 50 µM.
The same measure, in the same setting: the result for `O=C(O)C(Cl)(Cl)Cl` [Trichloroacetic acid] reads over 90 µM.
Same read-out and setting: the result for `N[C@H](C(=O)O)[C@@H]1CC(Cl)=NO1` [Acivicin] reads 3.86 µM.
Where the note is “AC50 (uM) modified / 1000”, `CN1CCC(CN2c3ccccc3Sc3ccccc32)C1` (centres unmarked) [Methdilazine hydrochloride] had a CC50 at 24 h of 8.75 µM.
Same read-out and setting: the result for `Cc1ccc(-c2ncc(Cl)cc2-c2ccc(S(C)(=O)=O)cc2)cn1` [Etoricoxib] reads over 50 µM; that for `O=C1C=CCCC1` [2-Cyclohexen-1-one], over 90 µM; that for `O=[N+]([O-])c1ccccc1CCO` [2-(2-Nitrophenyl)ethanol], over 90 µM.
`Nc1cc(C(=O)O)ccc1Cl` [3-Amino-4-chlorobenzoic acid] showed a CC50 at 24 h (AC50 (uM) modified / 1000) of over 90 µM.
Same read-out and setting: the result for `CC(C)=CCC1=C(O)C(=O)c2ccccc2C1=O` [Lapachol] reads 10.7 µM; that for `OCc1cccnc1` [Nicotinyl alcohol], over 50 µM.
For the compound `O=C1CCCCCO1` [Caprolactone], the CC50 at 24 h (AC50 (uM) modified / 1000) is over 90 µM.
In the case of `CCOC(=O)C(Cl)C(C)=O` (centres unmarked) [Ethyl 2-chloroacetoacetate], where the note is “AC50 (uM) modified / 1000, Tox21_110001=Tox21_202936, viability, 1 nM T3 present, 24 h”, the CC50 at 24 h is over 90 µM.
In turn, `CC(=O)C(=O)O` [Pyruvic acid] came in with a half-maximal cytotoxic concentration (CC50) at 24 h (AC50 (uM) modified / 1000) of over 90 µM.
Same read-out and setting: with `CC1=CCC(O)(C(C)C)CC1` (centres unmarked) [4-Methyl-1-(propan-2-yl)cyclohex-3-en-1-ol] the figure was over 90 µM; with `NC(=O)CC[C@@H](N)C(=O)O` [D-Glutamine], over 50 µM; with `Cc1ccc(N)cc1Cl` [3-Chloro-4-methylaniline], over 90 µM.
Same read-out and setting: the result for `C=C(C)C(=O)OCC(C)C` [Isobutyl methacrylate] reads over 90 µM; that for `CC(CCC(=O)O)(c1ccc(O)cc1)c1ccc(O)cc1` [Diphenolic acid], over 90 µM.
In turn, `C1CC2OC2CC1C1CO1` (centres unmarked) [4-Vinyl-1-cyclohexene dioxide] returned a CC50 at 24 h (AC50 (uM) modified / 1000, Tox21_110001=Tox21_201505, viability, 1 nM T3 present, 24 h) of over 90 µM.
Turning to `Cc1cccc(C)c1NC(=O)CC12CCCN1CCC2` [Pilsicainide], the CC50 at 24 h (AC50 (uM) modified / 1000) is over 50 µM.
On to `CCCCCOC(=O)c1ccc(O)cc1` [Pentylparaben], for which the cytotoxic concentration (CC50) at 24 h (AC50 (uM) modified / 1000) worked out at 67.4 µM.
Still for that read-out and setting: with `Nc1ccccc1S(=O)(=O)O` [Orthanilic acid] the figure was over 90 µM; with `O=S(=O)(O)CCCN1CCOCC1` [4-Morpholinepropanesulfonic acid], over 90 µM; with `c1ccc2c(c1)OCC(C1=NCCN1)O2` (centres unmarked) [Idazoxan], 7.8 µM.
The same measure, in the same setting: with `Oc1ccccc1Cc1ccccc1O` [2,2'-Bisphenol F] the figure was over 90 µM.
Take `O=CC(Br)(Br)Br` [Tribromoacetaldehyde]: the half-maximal cytotoxic concentration (CC50) at 24 h (AC50 (uM) modified / 1000, Tox21_110001=Tox21_200535, viability, 1 nM T3 present, 24 h) was 25.5 µM.
Compound `CCCc1ccc(O)cc1` [4-Propylphenol] showed a CC50 at 24 h (AC50 (uM) modified / 1000) of over 90 µM.
Still for that read-out and setting: the result for `CC(C)(C)C(=O)C(Cl)Cl` [Dichloropinacolin] reads over 90 µM.
As to `Cc1cccc(N)c1C` [2,3-Dimethylaniline], for the setting “AC50 (uM) modified / 1000”, the cytotoxic concentration (CC50) at 24 h is over 90 µM.
Same read-out and setting: the result for `N#Cc1cc2ccccc2c2ccccc12` [9-Cyanophenanthrene] reads over 90 µM; that for `CC1=C(C(=O)O)N2C(=O)[C@@H](NC(=O)[C@H](N)c3ccc(O)cc3)[C@H]2SC1` [Cefadroxil], over 20 µM; that for `CC1(C(=O)Nc2ccc(O)c(Cl)c2Cl)CCCCC1` [Fenhexamid], 76.7 µM.
The same measure, in the same setting: the result for `CCOC(=O)c1ccc(I)cc1` [Ethyl 4-iodobenzoate] reads over 90 µM.
The compound `C=CCc1ccc2c(c1)OCO2` [Safrole] registered a cytotoxic concentration (CC50) at 24 h (AC50 (uM) modified / 1000, Tox21_110001=Tox21_202439, viability, 1 nM T3 present, 24 h) of over 90 µM.
`CSc1ccc(Oc2ccc(S(N)(=O)=O)cc2CN(C)C)cc1C` [UK-416244]: half-maximal cytotoxicity (AC50 (uM) modified / 1000) (CC50 at 24 h) was put at 36.3 µM.
Same read-out and setting: with `CCCCOCN(C(=O)CCl)c1c(CC)cccc1CC` [Butachlor] the figure was 49.4 µM; with `O=C(O)CNC(=O)c1ccccc1I` [2-Iodohippuric acid], over 50 µM.
On the same count and under the same terms, the result for `Cc1ccc(C(C)(C)O)cc1` [p-Cymen-8-ol] reads over 90 µM.
As to `CN[C@@H](C)[C@H](O)c1ccccc1` [Ephedrine hydrochloride], where the note is “AC50 (uM) modified / 1000”, the cytotoxic concentration (CC50) at 24 h was over 50 µM.
For `OC[C@H]1O[C@@H]2O[C@H]3[C@H](O)[C@@H](O)[C@@H](O[C@H]4[C@H](O)[C@@H](O)[C@@H](O[C@H]5[C@H](O)[C@@H](O)[C@@H](O[C@H]6[C@H](O)[C@@H](O)[C@@H](O[C@H]7[C@H](O)[C@@H](O)[C@@H](O[C@H]8[C@H](O)[C@@H](O)[C@@H](O[C@H]9[C@H](O)[C@@H](O)[C@@H](O[C@H]1[C@H](O)[C@H]2O)O[C@@H]9CO)O[C@@H]8CO)O[C@@H]7CO)O[C@@H]6CO)O[C@@H]5CO)O[C@@H]4CO)O[C@@H]3CO` [gamma-Cyclodextrin], the CC50 at 24 h (AC50 (uM) modified / 1000) was over 30 µM.
Still for that read-out and setting: with `CC(CCC(=O)O)C(=O)O` (centres unmarked) [2-Methylpentanedioic acid] the figure was over 90 µM; with `CO[C@H]1C[C@@H]2CC[C@@H](C)[C@@](O)(O2)C(=O)C(=O)N2CCCC[C@H]2C(=O)O[C@H]([C@H](C)C[C@@H]2CC[C@@H](OCCO)[C@H](OC)C2)CC(=O)[C@H](C)/C=C(\C)[C@@H](O)[C@@H](OC)C(=O)[C@H](C)C[C@H](C)/C=C/C=C/C=C/1C` [Everolimus], 0.00998 µM; with `O=C1OC(=O)c2cc(Oc3ccc4c(c3)C(=O)OC4=O)ccc21` [5,5'-Oxybis(2-benzofuran-1,3-dione)], over 90 µM.
Consider `CCCC(=O)OC(C(Cl)(Cl)Cl)P(=O)(OC)OC` (centres unmarked) [Butonate], for which the 50% cytotoxic concentration (CC50) at 24 h (AC50 (uM) modified / 1000, Tox21_110001=Tox21_111908, viability, 1 nM T3 present, 24 h) was over 50 µM.
As to `Cc1cc(O)c2c(c1)C(=O)c1cccc(O)c1C2=O` [Chrysophanic acid], the CC50 at 24 h (AC50 (uM) modified / 1000) is over 50 µM.
Compound `Cc1cc(C)c(N)cc1C` [2,4,5-Trimethylaniline] gave a CC50 at 24 h (AC50 (uM) modified / 1000) of over 90 µM.
Consider `CCN(CC)CCOC(=O)C(C)(c1ccccc1)c1ccccc1` [Aprofene], for which the CC50 at 24 h (AC50 (uM) modified / 1000, Tox21_110001=Tox21_111979, viability, 1 nM T3 present, 24 h) was 15.4 µM.
With `CCCCCCCCCC(=O)O[C@H]1CC[C@H]2[C@@H]3CCC4=CC(=O)CC[C@]4(C)[C@H]3CC[C@]12C` [Testosterone decanoate], the CC50 at 24 h (AC50 (uM) modified / 1000, Tox21_110001=Tox21_111863, viability, 1 nM T3 present, 24 h) was over 50 µM.
As to `O=[N+]([O-])c1ccc(Cl)c(Cl)c1` [3,4-Dichloronitrobenzene], the CC50 at 24 h (AC50 (uM) modified / 1000, Tox21_110001=Tox21_201613, viability, 1 nM T3 present, 24 h) is over 90 µM.
For `CCC(C)(C)OC` [tert-Amyl methyl ether], the CC50 at 24 h (AC50 (uM) modified / 1000) was over 90 µM.
`O=C(Cl)C(Cl)Cl` [Dichloroacetyl chloride] had a CC50 at 24 h (AC50 (uM) modified / 1000, Tox21_110001=Tox21_200778, viability, 1 nM T3 present, 24 h) of over 90 µM.
For the setting “AC50 (uM) modified / 1000”, `CO/N=C(\C(=O)N[C@@H]1C(=O)N2C(C(=O)O)=C(CSC(=O)c3ccco3)CS[C@H]12)c1csc(N)n1` [Ceftiofur] registered a CC50 at 24 h of over 50 µM.
The same measure, in the same setting: the result for `NNc1nnc(Cc2ccncc2)c2ccccc12` [Picodralazine] reads over 50 µM.
On the same count and under the same terms, the result for `O=CCCCC=O` [Glutaraldehyde] reads over 90 µM; that for `C[C@H]1C[C@@H](O)CC(C)(C)C1` (stereo in doubt) [(1R,5R)-3,3,5-trimethylcyclohexanol], over 90 µM.
`CC(=O)OC[C@H]1O[C@@H](n2ncc(=O)[nH]c2=O)[C@H](OC(C)=O)[C@@H]1OC(C)=O` [6-Azaribine] yielded a cytotoxic concentration (CC50) at 24 h (AC50 (uM) modified / 1000) of over 50 µM.
As to `C=CCCC` [1-Pentene], where the note is “AC50 (uM) modified / 1000”, the CC50 at 24 h was over 90 µM.
Still for that read-out and setting: the result for `CCC(C)C(=O)OCCc1ccccc1` (centres unmarked) [2-Phenylethyl 2-methylbutanoate] reads over 90 µM; that for `CC(=O)c1cc(C)oc1C` [3-Acetyl-2,5-dimethylfuran], over 90 µM.
Same read-out and setting: with `COC(=O)C1=C(C)NC(C)=C(C(=O)O[C@@H]2CCCN(Cc3ccccc3)C2)[C@@H]1c1cccc([N+](=O)[O-])c1` (racemic) [rac Benidipine hydrochloride] the figure was 25.5 µM; with `CC1(C)S[C@@H]2[C@H](NC(=O)[C@H](N)c3ccccc3)C(=O)N2[C@H]1C(=O)O` [Ampicillin trihydrate], over 90 µM; with `NCCOCCOCCN` [2,2'-[Ethane-1,2-diylbis(oxy)]diethanamine], over 90 µM.
Same read-out and setting: with `COc1ccc(/C=C/C(=O)OCCC(C)C)cc1` [Amiloxate] the figure was over 50 µM; with `Cc1cn[nH]c1` [4-Methylpyrazole hydrochloride], over 50 µM; with `NC(=O)c1ncn([C@@H]2O[C@H](CO)[C@@H](O)[C@H]2O)c1N` [Acadesine], over 50 µM.
Consider `O=c1[nH]c(=O)n([C@H]2CCCO2)cc1F` [Tegafur], for which the CC50 at 24 h (AC50 (uM) modified / 1000) was over 90 µM.
Still for that read-out and setting: the result for `Cc1cc(O)cc(C)c1Cl` [4-Chloro-3,5-dimethylphenol] reads over 90 µM; that for `Nc1ccc(-c2ccc(N)c(N)c2)cc1N` [3,3',4,4'-Tetraaminobiphenyl tetrahydrochloride], 64.7 µM; that for `C[C@]12CCC(=O)C=C1C=C[C@@H]1[C@@H]2CC[C@@]2(C)[C@H]1CC[C@@]21CCC(=O)O1` [Canrenone], over 50 µM.
For `c1ccc2c(c1)sc1ccccc12` [Dibenzothiophene], the CC50 at 24 h runs as follows: (AC50 (uM) modified / 1000, Tox21_110001=Tox21_111308, viability, 1 nM T3 present, 24 h) over 50 µM; (AC50 (uM) modified / 1000, Tox21_110001=Tox21_303415, viability, 1 nM T3 present, 24 h) over 90 µM.
